In US4843070A, “Substituted thiazetoquinoline-3-carboxylic acids and pharmaceutically acceptable salts thereof” (priority 1986, dated 1989):
Values after ≈ are worked out from the molar mass of the structure shown. Like-named read-outs stand apart in the source and are kept apart here.

Tests used:
[1] = test system: infections caused by Gram positive bacteria and Pseudomonas aeruginosa (chronic); conditions: background statement; cited from earlier work
S. aureus 209-P JC = assay: MIC by agar plate dilution method, S. aureus 209-P JC; type: cell-based; conditions: Staphylococcus aureus, read-out: minimum inhibitory concentration (MIC)
Description: (§1) Test method: The MIC was measured by an agar plate dilution method in accordance with a standard method of Japan Chemotherapeutic Society (cf. Nippon Kagaku Ryoho Gakkaishi, 29(1), 76-79, 1981). Thus, the organisms incubated at 37° C. for 18 hours using sensitivity test broth (Nissei) was diluted to 10^6 CFU/ml using the same broth. […] As a control, enoxacin and ofloxacin were used in Tests 1 and 2, respectively.
(§2) The numbers of the inoculated bacteria were 10^6 in all cases and the unit of the MIC was micrograms/ml.

S. aureus Smith = assay: MIC by agar plate dilution method, S. aureus Smith; type: cell-based; conditions: Staphylococcus aureus, read-out: minimum inhibitory concentration (MIC)
Description: as §1, §2

M. luteus ATCC 9341 = assay: MIC by agar plate dilution method, M. luteus ATCC 9341; type: cell-based; conditions: Micrococcus luteus, read-out: minimum inhibitory concentration (MIC)
Description: as §1, §2

B. subtilis ATCC 6633 = assay: MIC by agar plate dilution method, B. subtilis ATCC 6633; type: cell-based; conditions: Bacillus subtilis, read-out: minimum inhibitory concentration (MIC)
Description: as §1, §2

E. coli NIHJ JC-2 = assay: MIC by agar plate dilution method, E. coli NIHJ JC-2; type: cell-based; conditions: Escherichia coli, read-out: minimum inhibitory concentration (MIC)
Description: as §1, §2

E. coli KC-14 = assay: MIC by agar plate dilution method, E. coli KC-14; type: cell-based; conditions: Escherichia coli, read-out: minimum inhibitory concentration (MIC)
Description: as §1, §2

K. pneumoniae K-1966 = assay: MIC by agar plate dilution method, K. pneumoniae K-1966; type: cell-based; conditions: Klebsiella pneumoniae, read-out: minimum inhibitory concentration (MIC)
Description: as §1, §2

E. cloacae No. 1 = assay: MIC by agar plate dilution method, E. cloacae No. 1; type: cell-based; conditions: Enterobacter cloacae, read-out: minimum inhibitory concentration (MIC)
Description: as §1, §2

S. marcescens IFO 3736 = assay: MIC by agar plate dilution method, S. marcescens IFO 3736; type: cell-based; conditions: Serratia marcescens, read-out: minimum inhibitory concentration (MIC)
Description: as §1, §2

P. vulgaris HX-19 = assay: MIC by agar plate dilution method, P. vulgaris HX-19; type: cell-based; conditions: Proteus vulgaris, HX19, Test 1, inoculum 10^6, 37° C., 18 hours, read-out: minimum inhibitory concentration (MIC)
Description: as §1, §2

S. flexneri = assay: MIC by agar plate dilution method, S. flexneri; type: cell-based; conditions: Shigella flexneri, Test 1, inoculum 10^6, 37° C., 18 hours, read-out: minimum inhibitory concentration (MIC)
Description: as §1, §2

P. aeruginosa E-2 = assay: MIC by agar plate dilution method, P. aeruginosa E-2; type: cell-based; conditions: Pseudomonas aeruginosa, read-out: minimum inhibitory concentration (MIC)
Description: as §1, §2

A. calcoaceticus 54 = assay: MIC by agar plate dilution method, A. calcoaceticus 54; type: cell-based; conditions: read-out: minimum inhibitory concentration (MIC)
Description: as §1, §2

[2] = Test 1, S. aureus 209-P JC, inoculum 10^6, 37° C., 18 hours
[3] = Test 1, S. aureus Smith, inoculum 10^6, 37° C., 18 hours
[4] = ATCC9341, Test 1, M. luteus ATCC 9341, inoculum 10^6, 37° C., 18 hours
[5] = ATCC6633, Test 1, B. subtilis ATCC 6633, inoculum 10^6, 37° C., 18 hours
[6] = NIHJJC2, Test 1, E. coli NIHJ JC-2, inoculum 10^6, 37° C., 18 hours
[7] = KC14, Test 1, E. coli KC-14, inoculum 10^6, 37° C., 18 hours
[8] = K1966, Test 1, K. pneumoniae K-1966, inoculum 10^6, 37° C., 18 hours
[9] = Test 1, E. cloacae No. 1, inoculum 10^6, 37° C., 18 hours
[10] = IFO3736, Test 1, S. marcescens IFO 3736, inoculum 10^6, 37° C., 18 hours
[11] = E2, Test 1, P. aeruginosa E-2, inoculum 10^6, 37° C., 18 hours
[12] = Acinetobacter calcoaceticus, Test 1, A. calcoaceticus 54, inoculum 10^6, 37° C., 18 hours

Structure (SMILES) | activity against infections caused by Gram positive bacteria and Pseudomonas aeruginosa (chronic) [1] | MIC (S. aureus 209-P JC; [2]) [µg/mL] | MIC (S. aureus Smith; [3]) [µg/mL] | MIC (M. luteus ATCC 9341; [4]) [µg/mL] | MIC (B. subtilis ATCC 6633; [5]) [µg/mL] | MIC (E. coli NIHJ JC-2; [6]) [µg/mL] | MIC (E. coli KC-14; [7]) [µg/mL] | MIC (K. pneumoniae K-1966; [8]) [µg/mL] | MIC (E. cloacae No. 1; [9]) [µg/mL] | MIC (S. marcescens IFO 3736; [10]) [µg/mL] | MIC (P. vulgaris HX-19) [µg/mL] | MIC (S. flexneri) [µg/mL] | MIC (P. aeruginosa E-2; [11]) [µg/mL] | MIC (A. calcoaceticus 54; [12]) [µg/mL] | also measured
CCn1cc(C(=O)O)c(=O)c2cnc(N3CCCC3)nc21 [piromidic acid] | not active |  |  |  |  |  |  |  |  |  |  |  |  |  | 
CC1Sc2c(C(=O)O)c(=O)c3cc(Cl)c(N4CCNCC4)cc3n21 (stereo not drawn) [(7)] |  | 0.1 (≈ 0.273 µM) | 0.2 (≈ 0.547 µM) | 1.56 (≈ 4.26 µM) | 0.2 (≈ 0.547 µM) | 0.05 (≈ 0.137 µM) | 0.025 (≈ 0.0683 µM) | 0.025 (≈ 0.0683 µM) | 0.05 (≈ 0.137 µM) | 0.1 (≈ 0.273 µM) | 0.025 (≈ 0.0683 µM) | 0.0125 (≈ 0.0342 µM) | 1.56 (≈ 4.26 µM) | 3.13 (≈ 8.56 µM) | 
CCn1cc(C(=O)O)c(=O)c2ccc(C)nc21 [nalidixic acid] | not active |  |  |  |  |  |  |  |  |  |  |  |  |  | 
CC1Sc2c(C(=O)O)c(=O)c3cc(F)c(N4CCSCC4)cc3n21 (stereo not drawn) [(6)] |  | 0.05 (≈ 0.136 µM) | ≤ 0.0063 | 1.56 (≈ 4.26 µM) | ≤ 0.0063 | 0.2 (≈ 0.546 µM) | 0.05 (≈ 0.136 µM) | 0.1 (≈ 0.273 µM) | 0.39 (≈ 1.06 µM) | 0.78 (≈ 2.13 µM) | ≤ 0.0063 | 0.1 (≈ 0.273 µM) | 0.78 (≈ 2.13 µM) | 0.2 (≈ 0.546 µM) | 
CC1Sc2c(C(=O)O)c(=O)c3cc(F)c(N4CCN(Cc5ccc(N)cc5)CC4)cc3n21 (stereo not drawn) [Table 1 (10), 7-(4-(4-Aminobenzyl)-1-piperazinyl)-6-fluoro-1-methyl-4-oxo-4H-(1,3)thiazeto(3,2-a)quinoline-3-carboxylic acid] |  | 0.05 (≈ 0.11 µM) | ≤ 0.0063 | 0.39 (≈ 0.858 µM) | ≤ 0.0063 | 0.2 (≈ 0.44 µM) | 0.05 (≈ 0.11 µM) | 0.2 (≈ 0.44 µM) | 0.39 (≈ 0.858 µM) | 0.56 (≈ 1.23 µM) | 0.1 (≈ 0.22 µM) | 0.1 (≈ 0.22 µM) | 3.13 (≈ 6.89 µM) | 0.39 (≈ 0.858 µM) | 
CC1Sc2c(C(=O)O)c(=O)c3cc(F)c(N4CCC(N)C4)cc3n21.CCS(=O)(=O)O (stereo not drawn) [Table 1 (8), 6-Fluoro-1-methyl-7-(3-amino-1-pyrrolidinyl)-4-oxo-4H-(1,3)thiazeto(3,2-a)quinoline-3-carboxylic acid ethanesulfonate] |  |  |  |  |  |  |  |  |  |  | ≤ 0.0063 | ≤ 0.0063 |  |  | MIC (S. aureus 209-P JC; 209P, 18 h): 0.025 µg/mL; MIC (S. aureus Smith; 18 h): 0.05 µg/mL; MIC (M. luteus ATCC 9341; ATCC9341, 18 h): 0.2 µg/mL; MIC (B. subtilis ATCC 6633; ATCC6633, 18 h): 0.05 µg/mL; MIC (E. coli NIHJ JC-2; NIHJJC2, 18 h): 0.05 µg/mL; MIC (E. coli KC-14; KC14, 18 h): ≤ 0.0063 µg/mL; MIC (K. pneumoniae K-1966; K1966, 18 h): 0.025 µg/mL; MIC (E. cloacae No. 1; NO.1, 18 h): 0.025 µg/mL; MIC (S. marcescens IFO 3736; IFO3736, 18 h): 0.1 µg/mL; MIC (P. aeruginosa E-2; E2, 18 h): 0.1 µg/mL; MIC (A. calcoaceticus 54; Acinetobacter calcoaceticus, 54, 18 h): 0.78 µg/mL
